# Assay results taken from patent US20090177450A1, “SYSTEMS AND METHODS FOR PREDICTING RESPONSE OF BIOLOGICAL SAMPLES” (Lawrence Berkeley National Laboratory, priority 2007, published 2009).
# Like-named read-outs stand apart in the source and are kept apart here.
# Experiments:
# breast cancer cell lines [1] = experiment: cells; details: Homo sapiens
# breast cancer cell lines [2] = test system: breast cancer cell lines
# [3] = test system: ERBB2-positive patients with advanced or metastatic breast cancer
# Experimental: Quantitative mRNA levels of the transcripts were measured relative to GAPDH using the branch capture (BC) assay from Panomics using RNA extracted from single 10 micrometer FFPE sections from each tumor. Adjacent H&E stained sections were analyzed for tumor content and samples with <50% tumor were excluded. Transcript levels measured using the Panomics BC assay were normalized to Affymetrix microarray equivalent levels using a mapping function developed using measurements of the transcript levels measured in 22 breast cancer cell lines using both platforms. These functions were then applied to Panomics BC transcript levels for tumor samples to obtain Affymetrix-equivalent transcript levels for each of the EERBB2, GRB7, CRK, ACOT9, CBX5, and DDX5 genes. The weights in the 6-gene predictive model for the tumors were the same as determined from cell lines.
# EGF20009 was a randomized, first line phase II trial in ERBB2-positive patients with advanced or metastatic breast cancer in which patients received Lapatinib as monotherapy. 138 patients with ERBB2-amplified tumors were randomly assigned to one of two Lapatinib dose cohorts: 69 patients received Lapatinib 1,500 mg once daily, and the remaining 69 patients received Lapatinib 500 mg twice daily. Samples from patients treated at both levels of Lapatinib were included in the study and patients were stratified into three groups based on tumor ERBB2 mRNA expression levels measured using the Panomics BC assay. Patients with the highest ERBB2 expression levels were assigned to a group designated as sensitive, patients with the lowest ERBB2 expression levels were assigned to a group designated as resistant and the remaining patients were assigned to an intermediate group (n=53). Patients whose tumors assigned to the intermediate group were further stratified into resistant and sensitive classes by using the 6-gene predictor set and a single response predictor CBX5, respectively.
# [4] = test system: ERBB2-positive tumors from human cancer patients; experiment: Progression free survival in a tumor panel stratified by the 6-gene computational model (Example 7); format: in vivo; details: sensitive if predicted log(GI50)≦0.4
# Excerpt: The computational model described in Example 6 was applied to the mRNA expression levels obtained to predict the Lapatinib sensitivity status of the tumors. […] The progression free survival of those predicted responders (sensitive) were compared to the non-responders (resistant).
smiles,measurement,setting,value
CS(=O)(=O)CCNCc1ccc(-c2ccc3ncnc(Nc4ccc(OCc5cccc(F)c5)c(Cl)c4)c3c2)o1 [Lapatinib],GI50,"breast cancer cell lines [1]; AU565, read-out: log10(GI50), cell line AU565 (converted), Training sample",0.0234 µM
same,GI50,"breast cancer cell lines [1]; BT-474, read-out: log10(GI50), cell line BT474 (converted), Training sample",0.03 µM
same,GI50,"breast cancer cell lines [1]; BT-483, read-out: log10(GI50), cell line BT483 (converted), Training sample",1.89 µM
same,GI50,"breast cancer cell lines [1]; BT-549, read-out: log10(GI50), cell line BT549 (converted), Training sample",25.1 µM
same,GI50,"breast cancer cell lines [1]; CAMA-1, read-out: log10(GI50), cell line CAMA1 (converted), Test sample",32.1 µM
same,GI50,"breast cancer cell lines [1]; HBL-100, read-out: log10(GI50), cell line HBL100 (converted), Training sample",6.33 µM
same,GI50,"breast cancer cell lines [1]; HCC38, read-out: log10(GI50), cell line HCC38 (converted), Training sample",5 µM
same,GI50,"breast cancer cell lines [1]; HCC70, read-out: log10(GI50), cell line HCC70 (converted), Test sample",0.5 µM
same,GI50,"breast cancer cell lines [1]; HCC202, read-out: log10(GI50), cell line HCC202 (converted), Test sample",0.015 µM
same,GI50,"breast cancer cell lines [1]; HCC1143, read-out: log10(GI50), cell line HCC1143 (converted), Training sample",3.04 µM
same,GI50,"breast cancer cell lines [1]; HCC1187, read-out: log10(GI50), cell line HCC1187 (converted), Test sample",7.35 µM
same,GI50,"breast cancer cell lines [1]; HCC1428, read-out: log10(GI50), cell line HCC1428 (converted), Test sample",10 µM
same,GI50,"breast cancer cell lines [1]; HCC1500, read-out: log10(GI50), cell line HCC1500 (converted), Training sample",1.6 µM
same,GI50,"breast cancer cell lines [1]; HCC1569, read-out: log10(GI50), cell line HCC1569 (converted), Training sample",0.1 µM
same,GI50,"breast cancer cell lines [1]; HCC1937, read-out: log10(GI50), cell line HCC1937 (converted), Training sample",3 µM
same,GI50,"breast cancer cell lines [1]; HCC1954, read-out: log10(GI50), cell line HCC1954 (converted), Training sample",0.3 µM
same,GI50,"breast cancer cell lines [1]; Hs-578T, read-out: log10(GI50), cell line HS578T (converted), Training sample",10 µM
same,GI50,"breast cancer cell lines [1]; MCF7, read-out: log10(GI50), cell line MCF7 (converted), Training sample",6 µM
same,GI50,"breast cancer cell lines [1]; MCF-10A, read-out: log10(GI50), cell line MCF10A (converted), Training sample",3 µM
same,GI50,"breast cancer cell lines [1]; MCF-12A, read-out: log10(GI50), cell line MCF12A (converted), Test sample",4 µM
same,GI50,"breast cancer cell lines [1]; MDA-MB-157, read-out: log10(GI50), cell line MDAMB157 (converted), Training sample",10 µM
same,GI50,"breast cancer cell lines [1]; MDA-MB-231, read-out: log10(GI50), cell line MDAMB231 (converted), Training sample",10 µM
same,GI50,"breast cancer cell lines [1]; MDA-MB-361, read-out: log10(GI50), cell line MDAMB361 (converted), Training sample",1.2 µM
same,GI50,"breast cancer cell lines [1]; MDA-MB-435, read-out: log10(GI50), cell line MDAMB435 (converted), Training sample",10 µM
same,GI50,"breast cancer cell lines [1]; MDA-MB-436, read-out: log10(GI50), cell line MDAMB436 (converted), Training sample",30 µM
same,GI50,"breast cancer cell lines [1]; MDA-MB-453, read-out: log10(GI50), cell line MDAMB453 (converted), Training sample",3 µM
same,GI50,"breast cancer cell lines [1]; MDA-MB-468, read-out: log10(GI50), cell line MDAMB468 (converted), Training sample",10 µM
same,GI50,"breast cancer cell lines [1]; SK-BR-3, read-out: log10(GI50), cell line SKBR3 (converted), Test sample",0.03 µM
same,GI50,"breast cancer cell lines [1]; SUM52PE, read-out: log10(GI50), cell line SUM52PE (converted), Training sample",15 µM
same,GI50,"breast cancer cell lines [1]; SUM149PT, read-out: log10(GI50), cell line SUM149PT (converted), Training sample",0.3 µM
same,GI50,"breast cancer cell lines [1]; SUM185PE, read-out: log10(GI50), cell line SUM185PE (converted), Training sample",12 µM
same,GI50,"breast cancer cell lines [1]; SUM-159-PT, read-out: log10(GI50), cell line SUM159PT (converted), Training sample",3 µM
same,GI50,"breast cancer cell lines [1]; T47D, read-out: log10(GI50), cell line T47D (converted), Test sample",25 µM
same,GI50,"breast cancer cell lines [1]; UACC-812, read-out: log10(GI50), cell line UACC812 (converted), Training sample",0.015 µM
same,GI50,"breast cancer cell lines [1]; ZR-75-1, read-out: log10(GI50), cell line ZR75.1 (converted), Test sample",20 µM
same,GI50,"breast cancer cell lines [1]; ZR-75B, read-out: log10(GI50), cell line ZR75B (converted), Test sample",8 µM
same,GI50,"breast cancer cell lines [1]; read-out: average log(GI50), training set of 30 breast cancer cell-lines (converted)",2.51 µM
same,GI50,"breast cancer cell lines [1]; read-out: log10(GI50), cell line 600MPE (converted), Training sample",8 µM
same,GI50,"breast cancer cell lines [1]; read-out: log10(GI50), cell line HCC2185 (converted), Training sample",8 µM
same,GI50,"breast cancer cell lines [1]; read-out: log10(GI50), cell line HCC3153 (converted), Training sample",10 µM
same,GI50,"breast cancer cell lines [1]; read-out: log10(GI50), cell line LY2 (converted), Training sample",8 µM
same,dynamic range of the GI50 response data,breast cancer cell lines [2]; across 40 breast cancer cell lines,> 3 logs
same,Sensitivity,breast cancer cell lines [2]; cell line AU565 found sensitive to Lapatinib,Yes
same,Sensitivity,breast cancer cell lines [2]; cell line BT474 found sensitive to Lapatinib,Yes
same,Sensitivity,breast cancer cell lines [2]; cell line HCC202 found sensitive to Lapatinib,Yes
same,Sensitivity,breast cancer cell lines [2]; cell line HCC1569 found sensitive to Lapatinib,Yes
same,Sensitivity,breast cancer cell lines [2]; cell line HCC1954 found sensitive to Lapatinib,Yes
same,Sensitivity,breast cancer cell lines [2]; cell line SKBR3 found sensitive to Lapatinib,Yes
same,Sensitivity,breast cancer cell lines [2]; cell line SUM149PT found sensitive to Lapatinib,Yes
same,Sensitivity,breast cancer cell lines [2]; cell line UACC812 found sensitive to Lapatinib,Yes
same,"hazards ratio (HR), predicted sensitive vs predicted resistant patients","[3]; intermediate ERBB2 expression group (n=53), 6-gene predictor set",0.383
same,"hazards ratio (HR), predicted sensitive vs predicted resistant patients","[3]; intermediate group, CBX5 single predictor",0.25
same,median survival,"[3]; intermediate group, patients predicted to be resistant, CBX5 single predictor",61 days
same,median survival,"[3]; intermediate group, patients predicted to be sensitive, CBX5 single predictor",176 days
same,response rate,"[3]; patients predicted to be resistant, CBX5 single predictor",17%
same,response rate,"[3]; patients predicted to be sensitive, CBX5 single predictor",56%
same,median survival of predicted responders compared to non-responders,[4],longer
